Measured values as given in article PMC10799935, “Discovery of a peripheral 5HT2A antagonist as a clinical candidate for metabolic dysfunction-associated steatohepatitis” (Nature Communications, 2024).
Several values for one entry are separate records, joined by “and”; a condition that tells them apart may be missing. Equal entries are not always repeated.

What was measured:
[1] = system: CDAHFD-fed C57BL/6 J mice; experiment: CDAHFD mice (12 weeks): body weight and clinical signs; type: in vivo, mouse; set-up: Body weight: unit: g; conditions: for Body weight, Mean Diff.: Tukey; for Body weight, Mean (one-way ANOVA): mean of 13 weekly values
From the text: (§1) C57BL/6 J male mice were purchased from the Japan SLC. Inc (Hamamatsu, Japan). Mice (5 weeks old) were fed Teklad Certitied Irradiated Global 18% protein rodent diet purchased from Dooyeol Biotech Co. Ltd (Seoul, South Korea) during the acclimation period. The liver fibrosis/inflammation-induced groups were CDAHFD-fed (A06071302, Research diet). […] All animal experiments complied with the relevant ethical regulations.

[2] = Hepatocyte stability test, rat; type: in vitro ADME; conditions: male, Sprague Dawley, cryopreserved hepatocytes, pH 7.4, read-out: Hepatocyte stability (% remaining after 3 h)
Experimental: Hepatocyte incubations for the test compound (10 μM final concentration, n = 2 per each time point) were carried out in mouse, rat, dog, monkey and human cryopreserved hepatocytes, resuspended at a density of 0.5 million cells/ml of modified Krebs-Henseleit buffer (KHB). The information regarding the hepatocytes used in the experiment is as follows: liverPool® 10-donor mixed gender human (BioIVT, Cat.No. X008001, lot EAV), male cynomolgus monkey (BioIVT, Cat.No. M00305, lot COJ), male Beagle dog (BioIVT, Cat.No. M00205, lot USY), male Sprague Dawley rat (BioIVT, Cat.No. M00005, lot TQE) and male CD1 mouse (BioIVT, Cat.No.005052, lot LFF). In addition, the compound was also incubated with blank KHB. The final concentration of solvent (DMSO) was 0.1% of the final volume. The incubations were performed for 3 hours at 37°C and pH 7.4. Reactions were terminated at 0 and 180 minutes by the addition of 3 volumes of stop solution (acetonitrile/methanol (2:1, v/v) containing internal standard–diclofenac at 100 ng/ml). Samples (compound spiked buffer and compound spiked hepatocytes, as well as blank samples, i.e. hepatocytes with the same DMSO%) were then centrifuged and aliquots were transferred to 96-deep micronic tubes and frozen at -80 °C until LC-MS/MS analysis. […]

Col1a1 = experiment: CDAHFD mice: liver Col1a1 RNA expression (qRT-PCR); type: in vivo, mouse; conditions: for Relative liver Col1a1 expressions in mice, measured using quantitative RT-PCR: individual mice and Average; for Col1A1 mRNA, Mean Diff.: Tukey; for Col1A1 mRNA, Median / Col1A1 mRNA, Mean: n=5; for Col1A1 mRNA, Mean: Column A = 1
From the text: as §1, with “diet). […].” for “diet).”
The frozen liver tissue was homogenized and put into QiAzol (Qiagen, Hilden) to isolate RNA, and 4 μg of RNA was synthesized into cDNA using the RevertAid First Strand cDNA synthesis kit (Thermo Fischer, Waltham). The expressions of mouse collagen I (Forward: 5’-TGTGTTCCCTACTCAGCCGTG-3’. Reverse: 5’-CATCGGTCATGCTCTCTCCAA-3’), mouse α-SMA (Forward:5’-TCCTGACGCTGAAGTATCCGAT-3’, Reverse: 5’-GGCCACACAAAGCTCGTTATAG-3’) and mouse 36B4 (Forward: 5’-ACCTCCTTCTTCCAGGCTTT-3’, Reverse: 5’-CTCCAGTCTTTATCAGCTGC-3’) as house-keeping gene were measured using ViiA 7 Real-time PCR system (Thermo Fischer scientific).

[3] = Column C (11c 5mpk) vs. Column D (11c 10mpk)
[4] = Column C (11c 5mpk) vs. Column B
[5] = Column D (11c 10mpk) vs. Column B

For Cc1nc2n(c(=O)c1CCN1CCC(=C3c4ccc(Cl)cc4CCc4cccnc43)CC1)CCCC2O (centres unmarked) [Compound 11c], the “body weight changes among the CDAHFD groups” value ([1]; 12 weeks) was “not significantly different”, the “clinical signs during the study period” value ([1]; CDAHFD mice, 5 and 10 mpk PO daily, 12 weeks) was “no abnormal clinical signs were observed” and the Body weight, Average ([1]; CDAHFD+11c 5mpk, week 0, 5 mice) was 20.6 g. For the same molecule, the Body weight ([1]; CDAHFD+11c 5mpk, week 0, individual mouse, in g (unit assumed)) was 21.7 and 20.6 and 20.4 and 20.7 and 19.7, the Body weight, Average ([1]; CDAHFD+11c 5mpk, week 1, 5 mice) was 20.6 g and the Body weight ([1]; CDAHFD+11c 5mpk, week 1, individual mouse, in g (unit assumed)) was 21.2 and 20.8 and 20.5 and 20.7 and 19.7. It also gave a Body weight, Average ([1]; CDAHFD+11c 5mpk, week 2, 5 mice) of 20.1 g, a Body weight, Average ([1]; CDAHFD+11c 5mpk, week 3, 5 mice) of 19.9 g and a Body weight, Average ([1]; CDAHFD+11c 5mpk, week 4, 5 mice) of 20.3 g. For the same molecule, the Body weight, Average ([1]; CDAHFD+11c 5mpk, week 5, 5 mice) was 20.5 g, the Body weight ([1]; CDAHFD+11c 5mpk, week 5, individual mouse, in g (unit assumed)) was 20.8 and 21.2 and 20.5 and 20.2 and 19.9 and the Body weight, Average ([1]; CDAHFD+11c 5mpk, week 6, 5 mice) was 20.8 g. For the same molecule, the Body weight ([1]; CDAHFD+11c 5mpk, week 6, individual mouse) was 20.9 (2×) and 21.4 and 20.7 and 20.3, the Body weight, Average ([1]; CDAHFD+11c 5mpk, week 7, 5 mice) was 21.4 g and the Body weight ([1]; CDAHFD+11c 5mpk, week 7, individual mouse) was 22.0 (2×) and 21.7 and 21.0 and 20.4. The Body weight, Average ([1]; CDAHFD+11c 5mpk, week 8, 5 mice) was 21.6 g, the Body weight ([1]; CDAHFD+11c 5mpk, week 8, individual mouse, in g (unit assumed)) was 22.3 and 22.1 and 21.9 and 21.5 and 20.3 and the Body weight, Average ([1]; CDAHFD+11c 5mpk, week 9, 5 mice) was 22.1 g. The Body weight ([1]; CDAHFD+11c 5mpk, week 9, individual mouse) was 23.0 and 22.4 (2×) and 21.7 and 20.9, the Body weight, Average ([1]; CDAHFD+11c 5mpk, week 10, 5 mice) was 22.2 g and the Body weight ([1]; CDAHFD+11c 5mpk, week 10, individual mouse, in g (unit assumed)) was 23.1 and 22.5 and 22.4 and 22.3 and 20.8. The Body weight, Average ([1]; CDAHFD+11c 5mpk, week 11, 5 mice) was 22.5 g, the Body weight ([1]; CDAHFD+11c 5mpk, week 11, individual mouse, in g (unit assumed)) was 23.6 and 23.2 and 22.9 and 22.3 and 20.7 and the Body weight, Average ([1]; CDAHFD+11c 5mpk, week 12, 5 mice) was 22.5 g. The Body weight ([1]; CDAHFD+11c 5mpk, week 12, individual mouse, in g (unit assumed)) was 23.4 and 23.6 and 22.5 and 22.1 and 20.9, the Body weight, Average ([1]; CDAHFD+11c 10mpk, week 0, 5 mice) was 20.6 g and the Body weight ([1]; CDAHFD+11c 10mpk, week 0, individual mouse) was 21.3 (2×) and 20.1 and 20.3 and 20.0. For the same molecule, the Body weight, Average ([1]; CDAHFD+11c 10mpk, week 1, 5 mice) was 20.4 g, the Body weight ([1]; CDAHFD+11c 10mpk, week 1, individual mouse) was 20.1 and 19.8 and 20.3 and 20.9 (2×) and the Body weight, Average ([1]; CDAHFD+11c 10mpk, week 2, 5 mice) was 20.3 g. For the same molecule, the Body weight, Average ([1]; CDAHFD+11c 10mpk, week 3, 5 mice) was 20.3 g, the Body weight, Average ([1]; CDAHFD+11c 10mpk, week 4, 5 mice) was 20.5 g and the Body weight, Average ([1]; CDAHFD+11c 10mpk, week 5, 5 mice) was 20.9 g. For the same molecule, the Body weight ([1]; CDAHFD+11c 10mpk, week 5, individual mouse) was 20.9 (2×) and 20.6 and 22.0 and 20.3, the Body weight, Average ([1]; CDAHFD+11c 10mpk, week 6, 5 mice) was 21.2 g and the Body weight ([1]; CDAHFD+11c 10mpk, week 6, individual mouse, in g (unit assumed)) was 21.4 and 20.9 and 22.2 and 20.8 and 20.5. For the same molecule, the Body weight, Average ([1]; CDAHFD+11c 10mpk, week 7, 5 mice) was 21.5 g, the Body weight ([1]; CDAHFD+11c 10mpk, week 7, individual mouse, in g (unit assumed)) was 21.9 and 21.0 and 22.3 and 21.1 and 21.2 and the Body weight, Average ([1]; CDAHFD+11c 10mpk, week 8, 5 mice) was 21.8 g. The Body weight ([1]; CDAHFD+11c 10mpk, week 8, individual mouse) was 22.0 and 21.2 and 23.0 and 21.4 (2×), the Body weight, Average ([1]; CDAHFD+11c 10mpk, week 9, 5 mice) was 21.8 g and the Body weight ([1]; CDAHFD+11c 10mpk, week 9, individual mouse, in g (unit assumed)) was 22.6 and 21.2 and 22.8 and 21.5 and 21.1. For the same molecule, the Body weight, Average ([1]; CDAHFD+11c 10mpk, week 10, 5 mice) was 22 g, the Body weight ([1]; CDAHFD+11c 10mpk, week 10, individual mouse, in g (unit assumed)) was 22.4 and 21.7 and 23.1 and 21.6 and 21.4 and the Body weight, Average ([1]; CDAHFD+11c 10mpk, week 11, 5 mice) was 22.4 g. The Body weight ([1]; CDAHFD+11c 10mpk, week 11, individual mouse) was 22.7 and 22.1 (2×) and 23.5 and 21.8, the Body weight, Average ([1]; CDAHFD+11c 10mpk, week 12, 5 mice) was 22.5 g and the Body weight ([1]; CDAHFD+11c 10mpk, week 12, individual mouse) was 22.9 and 22.3 (2×) and 23.3 and 21.6. The “Body weight, Mean Diff.” value ([1]; Column A (Vehicle, no CDAHFD) vs. Column C (11c 5mpk), in g (unit assumed)) was 3.52, the “Body weight, Mean Diff.” value ([1]; Column A (Vehicle, no CDAHFD) vs. Column D (11c 10mpk), in g (unit assumed)) was 3.44 and the “Body weight, Mean Diff.” value ([1]; Column B (CDAHFD+vehicle) vs. Column C (11c 5mpk), in g (unit assumed)) was 0.1462. For the same molecule, the “Body weight, Mean Diff.” value ([1]; Column B (CDAHFD+vehicle) vs. Column D (11c 10mpk), in g (unit assumed)) was 0.06615, the “Body weight, Mean Diff.” value [1, 3] was -0.08 and the “Body weight, Mean (one-way ANOVA)” value ([1]; Column C (CDAHFD+11c 5mpk), in g (unit assumed)) was 21.17. For the same molecule, the “Body weight, Mean (one-way ANOVA)” value ([1]; Column D (CDAHFD+11c 10mpk), in g (unit assumed)) was 21.25, the remaining at 3 h, 10 μM [2] was 68.9% and the “Relative liver Col1a1 expressions in mice, measured using quantitative RT-PCR” value (shortened to “Relative liver Col1a1 expressions”) (Col1a1; CDAHFD+11c 5 mpk) was 27.265 and 19.811 and 25.539 and 19.317 and 28.556. The “Relative liver Col1a1 expressions” value (Col1a1; CDAHFD+11c 5 mpk, mean) was 24.098, the “Relative liver Col1a1 expressions” value (Col1a1; CDAHFD+11c 10mpk) was 18.660 and 20.539 and 29.586 and 37.388 and 28.021 and the “Relative liver Col1a1 expressions” value (Col1a1; CDAHFD+11c 10mpk, mean) was 26.839. For the same molecule, the “mRNA expression of Col1a1 in liver tissue” value (Col1a1; CDAHFD-fed 11c vs CDAHFD-fed vehicle group) was “significantly decreased”, the “Col1A1 mRNA, Mean Diff.” value (Col1a1; Column A (Vehicle, no CDAHFD) vs. Column C (11c 5mpk)) was -23.1 and the “Col1A1 mRNA, Mean Diff.” value (Col1a1; Column A (Vehicle, no CDAHFD) vs. Column D (11c 10mpk)) was -25.84. The “Col1A1 mRNA, Mean Diff.” value (Col1a1; Column B (CDAHFD+vehicle) vs. Column C (11c 5mpk)) was 14.99, the “Col1A1 mRNA, Mean Diff.” value (Col1a1; Column B (CDAHFD+vehicle) vs. Column D (11c 10mpk)) was 12.25 and the “Col1A1 mRNA, Difference between medians: Actual” value (Col1a1; [4]) was -15.12. For the same molecule, the “Col1A1 mRNA, Difference between medians: Hodges-Lehmann” value (Col1a1; [4]) was -15.12, the “Col1A1 mRNA, Mean Diff.” value (Col1a1; [3]) was -2.741 and the “Col1A1 mRNA, Median” value (Col1a1; Column C (11c 5mpk)) was 25.54, n=5. The “Col1A1 mRNA, Mean” value (Col1a1; Column C (CDAHFD+11c 5mpk)) was 24.1, the “Col1A1 mRNA, Difference between medians: Actual” value (Col1a1; [5]) was -12.64 and the “Col1A1 mRNA, Difference between medians: Hodges-Lehmann” value (Col1a1; [5]) was -12.18. The “Col1A1 mRNA, Median” value (Col1a1; Column D (11c 10mpk)) was 28.02, n=5 and the “Col1A1 mRNA, Mean” value (Col1a1; Column D (CDAHFD+11c 10mpk)) was 26.84.
